From US20110230476A1, “PI3 KINASE INHIBITORS AND USES THEREOF” (AVILA THERAPEUTICS, INC., priority 2009, published 2011) come the findings set out here.

The target in test [1] is T1, PI3Kα (Homo sapiens, UniProt P42336). Put plainly: Mass spectrometry of intact PI3Kα (Millipore, 14-602), 1 hr incubation. It counts as binding. Further details: purchased Millipore 14-602. The note with it: 10× fold excess of compound, MALDI. As for the experimental part:
Mass Spectrometry for PI3K
Aliquots (5 μl) of the samples were diluted with 15 μl of 0.2% TFA prior to micro C4 ZipTipping directly onto the MALDI target using Sinapinic acid as the desorption matrix (10 mg/ml in 0.1% TFA:Acetonitrile 50:50).

Test [2] has as its system Phospho-Akt(Ser473). The experiment in a line: Dose response in SKOV3 cells as determined by in-cell Western. It counts as cell-based. In outline:
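SKOV3 cells treated with compound for 1 hr, then formaldehyde-fixed, permeabilised and stained overnight for phospho-Akt(Ser473) with anti-tubulin as a reference. Infrared secondary antibodies read at 680 and 800 nm channels by in-cell Western imaging.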

In the next test the target is T2, PI3Kβ (p110β/p85α) (Homo sapiens, UniProt P42338).
T2 construct: purchased BPS Bioscience (San Diego, Calif.) or Millipore (Billerica, Mass.)
T2 sequence (P42338 whole entry): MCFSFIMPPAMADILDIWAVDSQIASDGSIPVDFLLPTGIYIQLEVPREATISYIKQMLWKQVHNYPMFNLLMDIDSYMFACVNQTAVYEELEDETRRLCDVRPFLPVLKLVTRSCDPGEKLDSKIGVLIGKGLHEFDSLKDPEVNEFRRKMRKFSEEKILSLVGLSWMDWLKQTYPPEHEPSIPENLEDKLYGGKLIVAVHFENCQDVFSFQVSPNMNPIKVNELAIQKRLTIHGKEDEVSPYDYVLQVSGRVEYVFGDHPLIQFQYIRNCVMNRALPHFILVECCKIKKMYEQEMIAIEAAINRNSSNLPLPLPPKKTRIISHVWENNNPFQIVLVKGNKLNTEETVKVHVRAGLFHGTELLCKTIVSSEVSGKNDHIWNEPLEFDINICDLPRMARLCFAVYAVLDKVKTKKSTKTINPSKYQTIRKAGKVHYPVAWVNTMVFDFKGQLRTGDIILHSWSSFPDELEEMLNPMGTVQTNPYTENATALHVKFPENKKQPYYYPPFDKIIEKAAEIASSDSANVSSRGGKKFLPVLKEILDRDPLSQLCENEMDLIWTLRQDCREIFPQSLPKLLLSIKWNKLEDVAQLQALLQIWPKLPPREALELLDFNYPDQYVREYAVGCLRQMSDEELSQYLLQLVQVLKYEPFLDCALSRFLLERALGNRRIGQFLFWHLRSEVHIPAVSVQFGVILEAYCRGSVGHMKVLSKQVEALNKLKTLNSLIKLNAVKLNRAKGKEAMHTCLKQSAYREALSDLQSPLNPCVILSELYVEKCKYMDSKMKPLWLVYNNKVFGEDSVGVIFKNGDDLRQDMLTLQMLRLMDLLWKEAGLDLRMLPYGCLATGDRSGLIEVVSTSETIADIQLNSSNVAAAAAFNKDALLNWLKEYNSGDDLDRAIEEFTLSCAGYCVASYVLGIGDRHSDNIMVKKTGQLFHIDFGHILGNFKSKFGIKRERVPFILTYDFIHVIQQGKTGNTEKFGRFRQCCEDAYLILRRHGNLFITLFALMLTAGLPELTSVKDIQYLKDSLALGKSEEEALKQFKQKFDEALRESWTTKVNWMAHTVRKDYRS
T2 sequence (P27986 whole entry partner): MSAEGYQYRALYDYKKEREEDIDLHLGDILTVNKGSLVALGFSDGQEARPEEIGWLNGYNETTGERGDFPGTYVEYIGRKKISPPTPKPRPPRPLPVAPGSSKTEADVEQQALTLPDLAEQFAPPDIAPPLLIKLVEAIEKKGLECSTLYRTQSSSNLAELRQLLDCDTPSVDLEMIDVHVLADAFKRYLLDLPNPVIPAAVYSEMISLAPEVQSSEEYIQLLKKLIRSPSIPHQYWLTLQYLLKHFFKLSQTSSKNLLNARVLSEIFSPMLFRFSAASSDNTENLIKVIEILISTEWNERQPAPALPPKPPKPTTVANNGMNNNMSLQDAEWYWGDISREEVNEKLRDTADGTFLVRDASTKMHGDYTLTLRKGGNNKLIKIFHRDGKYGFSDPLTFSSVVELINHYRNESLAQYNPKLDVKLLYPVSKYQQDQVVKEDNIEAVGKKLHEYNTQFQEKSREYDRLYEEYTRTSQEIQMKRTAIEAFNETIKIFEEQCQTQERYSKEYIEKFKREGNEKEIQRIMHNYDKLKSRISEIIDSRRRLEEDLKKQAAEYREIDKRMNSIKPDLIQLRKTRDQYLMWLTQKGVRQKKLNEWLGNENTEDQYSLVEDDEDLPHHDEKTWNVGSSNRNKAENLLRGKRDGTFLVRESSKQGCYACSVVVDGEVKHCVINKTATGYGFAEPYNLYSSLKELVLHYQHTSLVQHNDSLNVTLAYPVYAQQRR
The experiment in a line: HTRF assay, potency against active PI3Kβ. The class given is biochemical. The note with it: [ATP]=50 μM, [di-C8-PIP2]=10 μM, 30 min pre-incubation, read-out: PI3Kβ Inhibition. Here is the method:
Homogeneous Time Resolved Fluorescence (HTRF) Assay Protocol for Potency Assessment Against the Active Forms of PI3Kα, PI3Kβ, and PI3Kγ
The mechanics of the assay platform are best described by the vendor (Millipore, Billerica, Mass.) on their website at the following URL: www.millipore.com/coa/tech1/74jt4z.
Briefly, Stop solution (Stop A, #33-007 and Stop B, #33-009; 3:1 ratio) and Detection Mix (from DMC, #33-015 with DMA, #33-011 and DMB, #33-013; 18:1:1 ratio) were prepared as recommended by the manufacturer about 2 hrs prior to use. […] Lipid kinase reactions were started with the addition of 5 μL of ATP solution, mixed for 15 sec on a rotary plate shaker and incubated for 30-60 minutes at 25° C. Next, reactions were stopped with a 5 μL addition of Stop solution immediately followed by a 5 μL volume of Detection Mix. […] At the conclusion of each assay, the HTRF ratio from fluorescence emission values for each well was calculated and % Inhibition determined from averaged controls wells (+/−PI3K enzyme). % Inhibition values for each compound were then plotted against inhibitor concentration to estimate IC50 from log [Inhibitor] vs Response, Variable Slope model in GraphPad Prism from GraphPad Software (San Diego, Calif.).

The next test addresses T3, PI3Kα (p110α/p85α) (Homo sapiens, UniProt P42336).
T3 construct: purchased BPS Bioscience (San Diego, Calif.) or Millipore (Billerica, Mass.)
The experiment in a line: HTRF assay, potency against active PI3Kα. It counts as biochemical. The note with it: HTRF; [ATP]=50 μM, [di-C8-PIP2]=10 μM; 30 min pre-incubation; read-out: PI3Kα Inhibition. The method, boiled down: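 IC50 came from a variable-slope fit of % inhibition, calculated from the HTRF emission ratio relative to wells with and without enzyme. Reactions with the active enzyme complex ran 30-60 minutes at 25 °C after ATP addition before stop and detection reagents.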
In general terms: Time-resolved FRET reads energy transfer from a long-lived donor to a nearby acceptor.

Another test deals with SKOV3 cells. Put plainly: GI50 determinations in SKOV3 cells. It counts as cell-based. As to conditions: Homo sapiens, SK-OV-3.
The target of test [3] is T1, PI3Kα. The experiment in a line: Trypsin digest and MS-MS analysis of compound-treated PI3Kα. The class given is binding. Further details: purchased Millipore 14-602. As to conditions: in-gel trypsin digest. Here is the method:
(§1) The PI3Kα protein band was then excised and subjected to an in-gel trypsin digest by reducing the protein with DTT, alkylating the thiols with iodoacetamide, and then incubating the protein gel band with trypsin overnight in a 37° C. water bath. The digest was then stopped by addition of trifluoroacetic acid, and peptides were removed from gel band by sonicating with increasing amounts of acetonitrile (0%, 30%, & 60%). Peptides were then purified using C18 ziptips, spotted on the MALDI target plate with α-cyano-4-hydroxycinnamic acid as the desorption matrix (10 mg/ml in 0.1% TFA:Acetonitrile 50:50), and analyzed in reflectron mode.
as §1, with “trifluoro acetic” for “trifluoroacetic”

Another test concerns PI3 kinase. Put plainly: Comparison of covalent and non-covalent inhibitors (Tables 18 and 19): prolonged PD, mechanism. Here is the method: “A” designates ≦10 nM; “B” designates 10-100 nM; and “C” designates 100-1000 nM
The next test deals with T4, PI3Kγ (p120γ) (Homo sapiens, UniProt P48736).
T4 construct: purchased BPS Bioscience (San Diego, Calif.) or Millipore (Billerica, Mass.)
T4 sequence (P48736 whole entry): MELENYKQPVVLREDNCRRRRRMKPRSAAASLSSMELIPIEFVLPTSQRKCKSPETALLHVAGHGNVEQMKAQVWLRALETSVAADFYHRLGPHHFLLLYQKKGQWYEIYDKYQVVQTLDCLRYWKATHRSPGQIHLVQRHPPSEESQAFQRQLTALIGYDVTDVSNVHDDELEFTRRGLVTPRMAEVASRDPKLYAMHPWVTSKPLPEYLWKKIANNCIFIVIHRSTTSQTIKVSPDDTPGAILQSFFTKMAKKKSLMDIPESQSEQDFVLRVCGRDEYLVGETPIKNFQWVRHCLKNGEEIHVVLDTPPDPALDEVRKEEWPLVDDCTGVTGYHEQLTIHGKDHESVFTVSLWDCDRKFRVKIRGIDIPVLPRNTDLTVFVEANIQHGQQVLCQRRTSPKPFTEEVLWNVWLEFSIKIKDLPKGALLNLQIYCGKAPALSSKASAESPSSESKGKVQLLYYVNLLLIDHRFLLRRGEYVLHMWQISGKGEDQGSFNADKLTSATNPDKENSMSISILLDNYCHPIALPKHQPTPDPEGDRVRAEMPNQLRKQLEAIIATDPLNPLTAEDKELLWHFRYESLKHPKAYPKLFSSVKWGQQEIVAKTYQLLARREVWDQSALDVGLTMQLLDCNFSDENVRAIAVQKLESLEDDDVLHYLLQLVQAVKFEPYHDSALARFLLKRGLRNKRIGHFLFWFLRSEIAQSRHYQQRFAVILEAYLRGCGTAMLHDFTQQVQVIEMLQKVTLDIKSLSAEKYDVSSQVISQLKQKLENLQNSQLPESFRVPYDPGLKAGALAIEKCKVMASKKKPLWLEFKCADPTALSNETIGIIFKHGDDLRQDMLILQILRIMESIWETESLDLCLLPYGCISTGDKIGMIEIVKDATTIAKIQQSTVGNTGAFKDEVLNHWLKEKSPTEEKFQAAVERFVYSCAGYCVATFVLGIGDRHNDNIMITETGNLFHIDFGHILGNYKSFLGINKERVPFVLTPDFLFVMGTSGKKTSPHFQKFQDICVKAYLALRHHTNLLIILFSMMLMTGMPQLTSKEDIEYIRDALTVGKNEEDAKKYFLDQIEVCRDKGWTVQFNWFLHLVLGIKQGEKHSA
Put plainly: HTRF assay, potency against active PI3Kγ. It counts as biochemical. The note with it: [ATP]=50 μM, [di-C8-PIP2]=10 μM, 30 min pre-incubation, read-out: PI3Kγ Inhibition. In outline: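 End-point competition HTRF: enzyme (p110β/p85α 0.75 nM; p120γ 2-2.5 nM) with 10 μM di-C8-PIP2 pre-incubated 30 min at 25° C with compound, then 50 μM ATP added for 30-60 min at 25° C. Stopped, detected after 1 and 18 h; IC50 from variable-slope fit.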

Another test relates to HCT116 cells. Put plainly: HCT-116 cell proliferation assay. It counts as cell-based. The note with it: Homo sapiens, 72 hours, Cell Titer Glo. Here is the method:
HCT-116 Cell Proliferation Assay
For the HCT116 Proliferation Assay, 3000 cells per well were plated in Growth Media (DMEM, 10% FBS, 1% 1-glutamine, 1% penicillin/streptomycin) in 96 well plates. The following day, compounds were added to duplicate wells at concentrations of 10 uM and 3-fold dilutions down to 40 nM. The plates were returned to the incubator for 72 hours and then the assays were developed using Cell Titer Glo (Promega, Madison, Wis.) according to manufacturer's instructions.

Another test has as its system SK-OV-3 cells. Put plainly: SK-OV-3 cell proliferation assay. It counts as cell-based. The note with it: Homo sapiens; SK-OV-3 proliferation, 72 hours, Cell Titer Glo. As for the experimental part: SK-OV-3 Cell Proliferation Assay
For the SK-OV-3 proliferation Assay, 5000 cells per well were plated in Growth Media (DMEM, 10% FBS, 1% 1-glutamine, 1% penicillin/streptomycin) in 96 well plates. The following day, compounds were added to duplicate wells at concentrations of 10 uM and 3-fold dilutions down to 40 nM. The plates were returned to the incubator for 72 hours and then the assays were developed using Cell Titer Glo (Promega, Madison, Wis.) according to manufacturer's instructions.
(In ATP-based viability assays light output follows the ATP content of the culture.)

The next test concerns PI3K. The experiment in a line: PI3K HCT116 cellular assay (Western blot). It counts as cell-based. As to conditions: Homo sapiens, HCT-116, HCT116 colon cancer cells, 1 hour incubation, read-out: PI3K Inhibition. As for the experimental part:
PI3K HCT116 Cellular Assay
Selected compounds were assayed in HCT116 colon cancer cells. […] Cells were then washed with PBS, lysed and the protein lysates were then recovered and analyzed by Western blot.
In general terms: In western blotting, separated proteins are transferred to a membrane and probed.

In another test the test system is SKOV-3 tumors. The experiment in a line: Tumor growth inhibition in vivo. The note with it: nude mice, subcutaneous SKOV-3 tumors; GDC-941 orally, II-a-3 I.P., 50-100 mg/Kg/QD, 21 days. As for the experimental part: Tumor Growth Inhibition In Vivo
The in vivo experiment was performed at Piedmont Research Center (Research Triangle Park, N.C.). Nude mice were implanted with SKOV-3 tumors subcutaneously. […] Dosing continued for 21 days. Tumor volume was measured twice a week.

The next test deals with p110alpha (Homo sapiens, UniProt P42336). Put plainly: In vitro occupancy in SKOV-3 cells with covalent probe. The class given is cell-based. The note with it: for target occupancy (competition with the covalent probe): covalent probe XIV-a-3 or XIV-a-4.
Chain of p110alpha (P42336 whole entry): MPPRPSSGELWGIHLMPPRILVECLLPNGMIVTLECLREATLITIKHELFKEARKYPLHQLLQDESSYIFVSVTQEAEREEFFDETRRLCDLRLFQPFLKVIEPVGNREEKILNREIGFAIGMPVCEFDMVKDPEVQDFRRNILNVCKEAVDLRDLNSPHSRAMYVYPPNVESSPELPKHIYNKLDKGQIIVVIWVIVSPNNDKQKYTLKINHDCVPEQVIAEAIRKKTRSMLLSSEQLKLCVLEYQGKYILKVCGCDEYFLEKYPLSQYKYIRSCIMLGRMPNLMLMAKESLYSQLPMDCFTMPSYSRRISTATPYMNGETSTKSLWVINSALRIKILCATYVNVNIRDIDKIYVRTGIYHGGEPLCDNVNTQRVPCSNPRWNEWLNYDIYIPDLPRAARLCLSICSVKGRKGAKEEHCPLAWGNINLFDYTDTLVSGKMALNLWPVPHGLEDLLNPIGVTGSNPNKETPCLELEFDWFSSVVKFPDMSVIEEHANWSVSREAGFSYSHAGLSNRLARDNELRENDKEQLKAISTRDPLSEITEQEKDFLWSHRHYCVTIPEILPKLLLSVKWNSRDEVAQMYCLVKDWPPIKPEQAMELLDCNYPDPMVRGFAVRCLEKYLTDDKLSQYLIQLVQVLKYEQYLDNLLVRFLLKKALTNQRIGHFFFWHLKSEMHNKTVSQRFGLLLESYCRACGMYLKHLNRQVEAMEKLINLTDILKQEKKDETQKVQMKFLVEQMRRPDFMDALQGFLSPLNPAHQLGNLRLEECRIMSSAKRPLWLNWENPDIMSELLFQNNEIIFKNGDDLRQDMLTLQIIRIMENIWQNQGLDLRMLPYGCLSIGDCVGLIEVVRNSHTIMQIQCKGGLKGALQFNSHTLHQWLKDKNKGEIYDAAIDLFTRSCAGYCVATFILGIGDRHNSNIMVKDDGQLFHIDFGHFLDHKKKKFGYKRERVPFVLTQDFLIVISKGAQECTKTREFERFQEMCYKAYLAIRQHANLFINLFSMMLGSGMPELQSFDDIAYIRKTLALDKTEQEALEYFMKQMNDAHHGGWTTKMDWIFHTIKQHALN
The subject of test [4] is Phospho-Akt(Ser473). Put plainly: Dose response in SKOV3 cells as determined by Western blot. It counts as cell-based. As to conditions: Homo sapiens, SK-OV-3, 1 hr, Phospho-Akt normalized to total Akt, read-out: Immunoblot. The method, boiled down:
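SKOV3 cells in DMEM/10% FBS were treated with compound in 0.1% DMSO for 1 hr, then lysed. 50 ug protein was immunoblotted for Phospho-Akt(Ser473) and total Akt with fluorescent read-out. Phospho-Akt was normalized to total Akt and expressed as percent of untreated signal.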

Setting [5] is: Homo sapiens, SK-OV-3, SKOV3 cells, 1 hr, read-out: pAKT Inhibition in cell Western.
The mark [6] stands for this setting: SKOV3 cells, 96 hours, Cell Titer Glo.
[7] abbreviates: Homo sapiens, SK-OV-3, Table 18, assay not given, classes agree with Table 23, read-out: EC50 pAkt^Ser473.

“Also recorded” adds a separate entry of the source.

T3 sequence (P42336 whole entry): as above
T3 sequence (P27986 whole entry partner): as the sequence (P27986 whole entry partner) above
T1 sequence (P42336 whole entry): as the sequence (P42336 whole entry) above
T1 sequence (P27986 whole entry partner): as the sequence (P27986 whole entry partner) above
Description for p110alpha: 150 ug of protein sample was added to a 0.2 ml tube and the volume brought up to 100 ul with IP Buffer from the Protein A/G Plate IP Kit (Pierce Biotechnology, Rockford, Ill.). XIV-a-3 was added at a concentration of 1 uM or XIV-a-4 was added at 50 nM and the tube was incubated at room temperature with rocking for 1 hr.
Protein A/G coated wells from the Protein A/G Plate IP Kit were washed 3× with 200 ul of IP Buffer. […] After incubating at room temperature with shaking for 1 hour, the wells were washed 5× with 200 ul of IP Buffer and the protein samples, preincubated with XIV-a-3, were added to the wells. The wells were incubated overnight at 4° C. with shaking.
The next morning, the wells were washed 5× with 200 ul of IP Buffer. The last wash was allowed to stand for 5 minutes before removal. The immuoprecipitate was eluted from the plate with 40 ul of Pierce Elution Buffer for 30 seconds, after which time the eluate was moved to a 1.5 ml tube containing 4 ul of Pierce Neutralization Buffer. 15 ul of NuPAGE LDS Sample Buffer and 6 ul of NuPAGE Sample Reducing Agent (Invitrogen, Carlsbad, Calif.) were added to each tube and the samples were incubated at 70° C. for 5 minutes.
The blot was rinsed once in water, then incubated for 2 minutes in Qentix Solution 1 (Pierce Biotechnology) followed by 5 rinses in water. The blot was then incubated for 10 minutes in Qentix solution 2, rinsed 5 times in water then blocked in Odyssey Blocking Buffer (Li-Cor) for an hour.
The blot was then incubated overnight at 4° C. with rabbit anti-p110 alpha antibody (Epitomics, Burlingame, Calif.) diluted 1:2500 in PBS/Odyssey Buffer (1:1)+0.1% Tween-20. […]
The blots were washed 2 times for 5 minutes in PBS+0.2% Tween-20, once in distilled water, then scanned on an Odyssey machine (Li-Cor, Lincoln, Nebr.). Band intensity was determined using the Odyssey software and streptavidin (Tool) signal was normalized to total p110 alpha signal within samples, then expressed as a percentage of the untreated signal.

As for `C=CC(=O)Nc1ccc(C(=O)N2CC=C(c3cc4nc(-c5cccc6[nH]ncc56)nc(N5CCOCC5)c4s3)CC2)cc1` [II-a-144, N-(4-(4-(2-(1H-indazol-4-yl)-4-morpholinothieno[3,2-d]pyrimidin-6-yl)-1,2,3,6-tetrahydropyridine-1-carbonyl)phenyl)acrylamide], at PI3Kα [1], the “covalent modification of PI3Kα” value is listed as “complete modification; also recorded: covalent modification”; the “mass shift of PI3Kα” value amounted to 575 Da; the “mass shift of PI3Kα, per cent in brackets” value is on record as 97%. In the test with Phospho-Akt(Ser473) [2] (setting [5]), the EC50 lay within 100 to 1000 nM. Moreover, the IC50 on PI3Kβ (p110β/p85α) was in the range of 100 to 1000 nM. In addition, the IC50 at PI3Kα (p110α/p85α) lay in the range of 100 to 1000 nM. Further, the GI50 in the test on SKOV3 cells (setting [6]) is 100 to 1000 nM. On PI3Kα [3], the “site on PI3Kα that is covalently modified” value is on record as “Cys-862; also recorded: peptide ^853NSHTIMQIQCK^863”.

Turning to `CCC(=O)Nc1ccc(CCNC(=O)c2cc3nc(-c4cccc5[nH]ncc45)nc(N4CCOCC4)c3s2)cc1` [II^R-a-148, 2-(1H-indazol-4-yl)-4-morpholino-N-(4-propionamidophenethyl)thieno[3,2-d]pyrimidine-6-carboxamide], the EC50 in the test with Phospho-Akt(Ser473) [2] (setting [5]) and with Phospho-Akt(Ser473) [2] (setting [7]) was 100 to 1000 nM each time. For the same compound, the IC50 was above 1000 nM on PI3Kβ (p110β/p85α), 100 to 1000 nM at PI3Kα (p110α/p85α) and above 1000 nM at PI3Kγ (p120γ). The “Prolonged PD” value in the test on PI3 kinase (Table 18) is recorded as “No”.

In the case of `CS(=O)(=O)N1CCN(Cc2cc3nc(-c4cccc5[nH]ncc45)nc(N4CCOCC4)c3s2)CC1` [GDC-941, reference compound], the results for the EC50 with HCT116 cells, in the test with SK-OV-3 cells and with PI3K were 1000 to 10000 nM, 1000 to 10000 nM and […], respectively. In addition, the “Prolonged PD” value with PI3 kinase (Table 19) is on record as “No”. In the test on SKOV-3 tumors, the tumor growth entry was “Inhibition of tumor growth”. For the same compound, the “target occupancy (competition with the covalent probe)” value on p110alpha is listed as “does not compete with the covalent probe”.

`C=CC(=O)Nc1ccc(CCNC(=O)c2cc3nc(-c4cccc5[nH]ncc45)nc(N4CCOCC4)c3s2)cc1` [II-a-148, N-(4-acrylamidophenethyl)-2-(1H-indazol-4-yl)-4-morpholinothieno[3,2-d]pyrimidine-6-carboxamide]: the “covalent modification of PI3Kα” value on PI3Kα [1] is recorded as “complete modification; also recorded: covalent modification”. Also, the “mass shift of PI3Kα” value on PI3Kα [1] is 472 Da. In addition, the “mass shift of PI3Kα, per cent in brackets” value at PI3Kα [1] was 85%. The EC50 is 10 to 100 nM in the test with Phospho-Akt(Ser473) [2] (setting [5]); 10 to 100 nM with Phospho-Akt(Ser473) [2] (setting [7]); 10 to 100 nM in the test on Phospho-Akt(Ser473) [2] (Table 19, assay not given, classes agree with Table 23, read-out: EC50 pAkt^Ser473); at most 10 nM in the test with Phospho-Akt(Ser473) [4]; around 40 nM at p110alpha (read-out: EC50 for occupying p110alpha, covalent probe XIV-a-3 or XIV-a-4). Besides, the IC50 at PI3Kβ (p110β/p85α) is above 1000 nM; on PI3Kα (p110α/p85α), 100 to 1000 nM. In addition, the “Prolonged PD” value in the test with PI3 kinase (Table 18) and with PI3 kinase (Table 19) was “Yes” throughout. The GI50 with SKOV3 cells (setting [6]) fell in the range of 10 to 100 nM; in the test on SKOV3 cells (Table 19, assay not given, classes agree with Table 26) it was 10 to 100 nM. The “target occupancy (competition with the covalent probe)” value on p110alpha is recorded as “Dose-dependent target occupancy”.

In general, GI50 refers to the concentration giving 50% growth inhibition. A high value points to less potent growth inhibition.
